Columns and labels:
[1] = DRUGMATRIX: Calcium Channel Type L, Dihydropyridine radioligand binding (ligand: [3H] Nitrendipine); assay type: cell membranes, Rattus norvegicus, Wistar, Cerebral cortex, Membrane; conditions: Not Active = under 50% inhibition at 10 µM
[2] = DRUGMATRIX: Purinergic P2X radioligand binding (ligand: [3H] alpha, beta-Methylene-ATP); assay type: cell membranes, Oryctolagus cuniculus, New Zealand albino, Urinary bladder, Membrane; conditions: Not Active = under 50% inhibition at 10 µM
[3] = biological target: Carbonic anhydrase 2 (Homo sapiens, UniProt P00918); assay: DRUGMATRIX: Carbonic Anhydrase II enzyme inhibition (substrate: 4-Nitrophenyl acetate (4-NPA)); assay type: tissue-based; conditions: erythrocyte; Not Active = under 50% inhibition at 10 µM
[4] = biological target: T1, C-X-C chemokine receptor type 1 (Homo sapiens, UniProt P25024); also: in other assays of this panel Not Active means under 50% inhibition at 10 µM
T1 sequence (P25024 whole entry): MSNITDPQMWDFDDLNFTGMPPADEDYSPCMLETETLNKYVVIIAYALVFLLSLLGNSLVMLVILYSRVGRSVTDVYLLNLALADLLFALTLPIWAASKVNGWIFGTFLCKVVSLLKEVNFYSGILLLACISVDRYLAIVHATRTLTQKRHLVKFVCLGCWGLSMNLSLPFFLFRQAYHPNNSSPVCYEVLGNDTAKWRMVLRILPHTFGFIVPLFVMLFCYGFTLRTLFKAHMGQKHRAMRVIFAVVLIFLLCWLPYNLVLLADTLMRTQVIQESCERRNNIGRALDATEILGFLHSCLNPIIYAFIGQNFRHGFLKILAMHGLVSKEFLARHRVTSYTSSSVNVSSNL

[5] = biological target: Kappa-type opioid receptor (Homo sapiens, UniProt P41145); assay: DRUGMATRIX: Opiate kappa (OP2, KOP) radioligand binding (ligand: [3H] Diprenorphine); assay type: cell membranes, HEK293, Membrane; conditions: hek293; Not Active = under 50% inhibition at 10 µM
[6] = biological target: Vascular endothelial growth factor receptor 1 (Homo sapiens, UniProt P17948); assay: biochemical; assay type: cell-based, HUVEC; conditions: huvec; also: in other assays of this panel Not Active means under 50% inhibition at 10 µM
[7] = DRUGMATRIX: Imidazoline I2, Central radioligand binding (ligand: [3H] Idazoxan); assay type: cell membranes, Rattus norvegicus, Wistar, Cerebral cortex, Membrane; conditions: Not Active = under 50% inhibition at 10 µM

Chain of Vascular endothelial growth factor receptor 1 (P17948 whole entry): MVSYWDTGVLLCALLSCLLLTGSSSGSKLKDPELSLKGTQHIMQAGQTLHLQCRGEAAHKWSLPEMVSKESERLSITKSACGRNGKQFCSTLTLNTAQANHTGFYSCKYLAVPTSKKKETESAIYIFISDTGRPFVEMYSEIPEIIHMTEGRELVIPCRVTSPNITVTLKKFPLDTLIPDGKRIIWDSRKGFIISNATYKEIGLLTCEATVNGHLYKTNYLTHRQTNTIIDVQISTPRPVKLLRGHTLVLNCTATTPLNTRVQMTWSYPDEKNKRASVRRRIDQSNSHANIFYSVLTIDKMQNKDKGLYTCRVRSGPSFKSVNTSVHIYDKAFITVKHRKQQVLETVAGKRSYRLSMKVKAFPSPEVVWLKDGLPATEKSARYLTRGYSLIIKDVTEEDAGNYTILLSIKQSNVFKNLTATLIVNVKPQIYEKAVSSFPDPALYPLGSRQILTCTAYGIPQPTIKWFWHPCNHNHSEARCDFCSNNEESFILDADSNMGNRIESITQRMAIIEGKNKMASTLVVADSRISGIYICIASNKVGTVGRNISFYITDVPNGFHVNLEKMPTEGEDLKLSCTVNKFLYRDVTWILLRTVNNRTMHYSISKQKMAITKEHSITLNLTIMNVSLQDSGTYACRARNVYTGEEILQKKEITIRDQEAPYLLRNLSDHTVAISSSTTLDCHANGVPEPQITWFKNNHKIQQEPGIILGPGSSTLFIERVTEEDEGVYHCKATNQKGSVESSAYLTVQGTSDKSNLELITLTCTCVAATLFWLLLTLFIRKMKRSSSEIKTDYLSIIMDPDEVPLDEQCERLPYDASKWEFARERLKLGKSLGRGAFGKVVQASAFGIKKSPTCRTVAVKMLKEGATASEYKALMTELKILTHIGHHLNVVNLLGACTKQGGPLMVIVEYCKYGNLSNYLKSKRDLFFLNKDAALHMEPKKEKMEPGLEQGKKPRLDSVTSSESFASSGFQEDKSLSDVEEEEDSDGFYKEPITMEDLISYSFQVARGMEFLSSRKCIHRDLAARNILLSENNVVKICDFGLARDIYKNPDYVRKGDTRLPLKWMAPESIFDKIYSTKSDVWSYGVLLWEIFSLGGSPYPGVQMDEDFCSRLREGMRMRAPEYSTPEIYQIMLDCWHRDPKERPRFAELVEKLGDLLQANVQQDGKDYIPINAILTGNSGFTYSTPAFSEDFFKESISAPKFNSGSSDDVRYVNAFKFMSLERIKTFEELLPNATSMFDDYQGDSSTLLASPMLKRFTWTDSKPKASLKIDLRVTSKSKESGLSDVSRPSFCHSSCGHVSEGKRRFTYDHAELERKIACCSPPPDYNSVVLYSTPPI
Chain of Kappa-type opioid receptor (P41145 whole entry): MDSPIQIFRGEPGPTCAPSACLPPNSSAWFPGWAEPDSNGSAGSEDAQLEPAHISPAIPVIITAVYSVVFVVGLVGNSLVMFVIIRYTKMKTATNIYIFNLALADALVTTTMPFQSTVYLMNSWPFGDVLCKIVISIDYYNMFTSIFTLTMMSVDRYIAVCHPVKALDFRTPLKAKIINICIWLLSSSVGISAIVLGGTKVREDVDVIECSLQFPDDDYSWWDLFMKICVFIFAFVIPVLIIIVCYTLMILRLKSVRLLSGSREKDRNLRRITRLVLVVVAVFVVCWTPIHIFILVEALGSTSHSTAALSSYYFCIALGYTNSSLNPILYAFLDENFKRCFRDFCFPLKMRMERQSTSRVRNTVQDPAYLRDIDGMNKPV

For `Cn1c(=O)c2c(ncn2CC(O)CO)n(C)c1=O` (stereo not drawn) [DYPHYLLINE], the IC50 [1] was “Not Active”, the Ki [1] was “Not Active” and the IC50 [2] was “Not Active”. For the same compound, the Ki [2] was “Not Active”, the IC50 [3] was “Not Active” and the IC50 [4] was “Not Active”. For the same compound, the IC50 [5] was “Not Active”, the IC50 [6] was “Not Active” and the IC50 [7] was “Not Active”. For the same compound, the Ki [7] was “Not Active”.
For `O=C(O)c1cccnc1Nc1cccc(C(F)(F)F)c1` [NIFLUMIC ACID], the IC50 [1] was “Not Active”, the Ki [1] was “Not Active” and the IC50 [2] was “Not Active”. For the same compound, the Ki [2] was “Not Active”, the IC50 [3] was “Not Active” and the IC50 [4] was “Not Active”. The IC50 [5] was “Not Active”, the IC50 [6] was “Not Active” and the IC50 [7] was “Not Active”. For the same compound, the Ki [7] was “Not Active”.
With `CC(C)c1cccc(C(C)C)c1O` [PROPOFOL] the IC50 [1] was “Not Active”, the Ki [1] was “Not Active” and the IC50 [2] was “Not Active”. For the same compound, the Ki [2] was “Not Active”, the IC50 [3] was “Not Active” and the IC50 [4] was “Not Active”. The IC50 [6] was “Not Active”, the IC50 [7] was “Not Active” and the Ki [7] was “Not Active”.
With AURANOFIN the IC50 [1] was “Not Active”, the Ki [1] was “Not Active” and the IC50 [2] was “Not Active”. The Ki [2] was “Not Active”, the IC50 [3] was “Not Active” and the Ki [3] was “Not Active”. The IC50 [4] was “Not Active”, the Ki [4] was “Not Active” and the IC50 [6] was “Not Active”. The Ki [6] was “Not Active”, the IC50 [7] was “Not Active” and the Ki [7] was “Not Active”.
With `O=C/C=C/c1ccccc1` the IC50 [1] was “Not Active”, the Ki [1] was “Not Active” and the IC50 [2] was “Not Active”. For the same compound, the Ki [2] was “Not Active”, the IC50 [3] was “Not Active” and the IC50 [4] was “Not Active”. The IC50 [6] was “Not Active”, the IC50 [7] was “Not Active” and the Ki [7] was “Not Active”.
With GRAMICIDIN the IC50 [1] was “Not Active”, the Ki [1] was “Not Active” and the IC50 [2] was “Not Active”. For the same compound, the Ki [2] was “Not Active”, the IC50 [3] was “Not Active” and the Ki [3] was “Not Active”. For the same compound, the IC50 [4] was “Not Active”, the Ki [4] was “Not Active” and the IC50 [6] was “Not Active”. For the same compound, the Ki [6] was “Not Active”, the IC50 [7] was “Not Active” and the Ki [7] was “Not Active”.
For `Cc1nnc2n1-c1ccc(Cl)cc1C(c1ccccc1)=NC2` [ALPRAZOLAM], the IC50 [1] was “Not Active”, the Ki [1] was “Not Active” and the IC50 [2] was “Not Active”. The Ki [2] was “Not Active”, the IC50 [3] was “Not Active” and the IC50 [4] was “Not Active”. The IC50 [6] was “Not Active”, the IC50 [7] was “Not Active” and the Ki [7] was “Not Active”.
In the case of GENTAMICIN, the IC50 [1] is reported as “Not Active”, the Ki [1] is reported as “Not Active” and the IC50 [2] is reported as “Not Active”. The Ki [2] was “Not Active”, the IC50 [3] was “Not Active” and the Ki [3] was “Not Active”. For the same compound, the IC50 [4] was “Not Active”, the Ki [4] was “Not Active” and the IC50 [6] was “Not Active”. The Ki [6] was “Not Active”, the IC50 [7] was “Not Active” and the Ki [7] was “Not Active”.
With `C[C@@H]1O[C@@H](O[C@@H]2C=C3CC[C@@H]4[C@H](CC[C@]5(C)[C@@H](c6ccc(=O)oc6)CC[C@]45O)[C@@]3(C)CC2)[C@H](O)[C@H](O)[C@H]1O` [PROSCILLARIDIN] the IC50 [1] was “Not Active”, the Ki [1] was “Not Active” and the IC50 [2] was “Not Active”. The Ki [2] was “Not Active”, the IC50 [3] was “Not Active” and the IC50 [4] was “Not Active”. The IC50 [6] was “Not Active”, the IC50 [7] was “Not Active” and the Ki [7] was “Not Active”.
In the case of NYSTATIN, the IC50 [1] is reported as “Not Active”, the Ki [1] is reported as “Not Active” and the IC50 [2] is reported as “Not Active”. For the same compound, the Ki [2] was “Not Active”, the IC50 [3] was “Not Active” and the Ki [3] was “Not Active”. The IC50 [4] was “Not Active”, the Ki [4] was “Not Active” and the IC50 [6] was “Not Active”. For the same compound, the Ki [6] was “Not Active”, the IC50 [7] was “Not Active” and the Ki [7] was “Not Active”.
For GADOPENTETATE DIMEGLUMINE, the IC50 [1] was “Not Active”, the Ki [1] was “Not Active” and the IC50 [2] was “Not Active”. For the same compound, the Ki [2] was “Not Active”, the IC50 [3] was “Not Active” and the Ki [3] was “Not Active”. The IC50 [4] was “Not Active”, the Ki [4] was “Not Active” and the IC50 [6] was “Not Active”. The Ki [6] was “Not Active”, the IC50 [7] was “Not Active” and the Ki [7] was “Not Active”.
For `C[n+]1ccc(-c2cc[n+](C)cc2)cc1.[Cl-].[Cl-]` [PARAQUAT DICHLORIDE], the IC50 [1] was “Not Active”, the Ki [1] was “Not Active” and the IC50 [2] was “Not Active”. The Ki [2] was “Not Active”, the IC50 [3] was “Not Active” and the IC50 [4] was “Not Active”. The IC50 [6] was “Not Active”, the IC50 [7] was “Not Active” and the Ki [7] was “Not Active”.
With `C[C@@H](CO)NC(=O)[C@@H]1C=C2c3cccc4[nH]cc(c34)C[C@H]2N(C)C1` [ERGONOVINE] the IC50 [1] was “Not Active”, the Ki [1] was “Not Active” and the IC50 [2] was “Not Active”. For the same compound, the Ki [2] was “Not Active”, the IC50 [3] was “Not Active” and the IC50 [4] was “Not Active”. For the same compound, the IC50 [6] was “Not Active” and the Ki ([7]; read-out: Ki) was 1.23 µM.
